Tests used:
Experiment in all cases: relative viability (nuclei count vs DMSO), 5 days (fraction); higher = more cells survive
[1] = compound: COc1cc2nccc(Oc3ccc(NC(=O)C4(C(=O)Nc5ccc(F)cc5)CC4)cc3)c2cc1OC [Cabozantinib] + N=C(N)NC(=N)NCCc1ccccc1 [Phenformin] (partner 250 µM)
Summary of the method: (§1)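 Values are medians from duplicate plates. Each reflects relative viability, defined as the nuclei count of treated wells over that of vehicle wells. Lung cancer cell lines in 1536-well plates were pin-tool dosed one day after seeding with one drug alone or with a fixed anchor-drug dose plus five library-drug doses (not always all listed) in √10 steps, then fixed, stained and imaged at 4× after 5 days.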

[2] = compound: COc1cc2nccc(Oc3ccc(NC(=O)C4(C(=O)Nc5ccc(F)cc5)CC4)cc3)c2cc1OC [Cabozantinib] + C[C@]1(O)C[C@@H](c2nc(-c3ccc4ccc(-c5ccccc5)nc4c3)c3c(N)nccn32)C1 [Linsitinib] (partner 1 µM)
Summary of the method: as §1

[3] = compound: C1=CC(=CC=C1NC(=S)NNC2=C(C=C(C=C2[N+](=O)[O-])C(F)(F)F)[N+](=O)[O-])F [Kobe2602] + Cc1cc(Nc2cc(N3CCN(C)CC3)nc(Sc3ccc(NC(=O)C4CC4)cc3)n2)n[nH]1 [Tozasertib] (partner 0.1 µM)
Summary of the method: as §1

[4] = compound: C1=CC(=CC=C1NC(=S)NNC2=C(C=C(C=C2[N+](=O)[O-])C(F)(F)F)[N+](=O)[O-])F [Kobe2602] + O=C(c1cc(Cc2n[nH]c(=O)c3ccccc23)ccc1F)N1CCN(C(=O)C2CC2)CC1 [Olaparib] (partner 8 µM)
Summary of the method: as §1

Cell Line | relative viability ([1]; first compound 0.02 µM) | relative viability ([1]; first compound 0.06325 µM) | relative viability ([1]; first compound 0.2 µM) | relative viability ([1]; first compound 0.6325 µM) | relative viability ([1]; first compound 2 µM) | relative viability ([2]; first compound 0.06325 µM) | relative viability ([2]; first compound 0.2 µM) | relative viability ([2]; first compound 0.6325 µM) | relative viability ([2]; first compound 2 µM) | relative viability ([3]; first compound 0.2 µM) | relative viability ([3]; first compound 0.6325 µM) | relative viability ([3]; first compound 2 µM) | relative viability ([3]; first compound 6.325 µM) | relative viability ([3]; first compound 20 µM) | relative viability ([4]; first compound 0.2 µM) | relative viability ([4]; first compound 0.6325 µM) | relative viability ([4]; first compound 6.325 µM) | relative viability ([4]; first compound 20 µM) | relative viability ([2]; first compound 0.02 µM) | relative viability ([4]; first compound 2 µM)
LCLC-97TM1 | 0.229 | 0.461 | 0.5 | 0.431 | 0.45 | 0.187 | 0.2 | 0.195 | 0.204 | 0.219 | 0.292 | 0.175 | 0.186 | 0.196 | 0.365 | 0.416 | 0.437 | 0.383 | – | –
LU99A | 0.766 | 0.934 | 0.925 | 0.696 | 0.89 | 0.513 | 0.516 | 0.452 | 0.435 | 0.287 | 0.323 | 0.286 | 0.237 | 0.298 | 0.255 | 0.275 | 0.262 | 0.28 | 0.547 | 0.259
NCI-H1299 | – | – | – | – | – | 1 | 0.982 | 0.96 | 0.966 | – | – | – | – | – | 0.996 | 1.02 | 1.02 | 0.985 | 1.03 | 0.949
NCI-H1355 | 0.435 | 0.516 | 0.475 | 0.436 | 0.424 | 0.855 | 0.799 | 0.806 | 0.697 | 0.587 | 0.597 | 0.534 | 0.534 | 0.542 | 0.742 | 0.747 | 0.727 | 0.601 | 0.827 | 0.712
HARA | 0.417 | 0.508 | 0.443 | 0.408 | 0.411 | 1.06 | 0.874 | 0.994 | 0.986 | 0.117 | 0.102 | 0.122 | 0.508 | 0.123 | 0.868 | 1.03 | 0.958 | 0.78 | 1.03 | 0.914
LXF-289 | 0.524 | 0.544 | 0.5 | 0.508 | 0.493 | 0.966 | 0.971 | 0.983 | 0.94 | 0.192 | 0.191 | 0.181 | 0.203 | 0.185 | 1.05 | 1.1 | 0.955 | 1.04 | 1.02 | 1.05
201T | 0.383 | 0.451 | 0.472 | 0.438 | 0.439 | 1.04 | 0.993 | 1.01 | 0.973 | 0.94 | 0.968 | 0.966 | 0.924 | 0.881 | 0.815 | 0.859 | 0.866 | 0.826 | 1.08 | 0.869
HCC-827 | 0.425 | 0.441 | – | 0.417 | 0.381 | 1.02 | – | 1.03 | 0.972 | 0.444 | 0.448 | 0.391 | 0.416 | 0.425 | 0.681 | 0.678 | 0.664 | 0.725 | 0.945 | 0.683
NCI-H1703 | – | – | – | – | – | 0.35 | 0.287 | 0.165 | 0.146 | – | – | – | – | – | 0.454 | 0.364 | 0.483 | 0.431 | 0.601 | 0.4
